Measurements published in patent US10420747B2 (priority 2016, dated 2019).

How the values were obtained:
[1] = tested on: HSP90 and HSP70; assay: Western blotting of AR molecular chaperones; format: cell-based, human; settings: LNCaP and 22RV1, 12 hours
Procedure: Cells were lysed and AR, HSP90 and HSP70 protein levels were measured by Western blot analysis.
Lysates were fractionated on polyacrylamide gels and transferred to nitrocellulose. The blots were probed with specific antibodies followed by secondary antibody then membranes were examined using the LI-COR Odyssey infrared imaging system (LI-COR Biotechnology, Lincoln Nebr.). […] The β-actin antibody (1:10000) was purchased from Sigma (St. Louis, Mo.).

[2] = tested on: VCaP xenografts; assay: Subcutaneous VCaP xenograft model; format: in vivo, mouse; settings: 10 mg/kg MDV or 2 mg/kg AIL i.p., 32 days
Procedure: (A-C) 22RV1 (A), LNCaP (B) and Vcap (C) cells were injected with 0.1 ml PBS (22RV1) or Matrigel (LNCaP, Vcap) into the right flank of BALB/c-nude. […] Tumor volume and the mouse body weight were measured once a week. The mice were sacrificed after 28 days (22RV1), 49 days (LNCaP) or 32 days (Vcap) and the tumors from each group of mice were harvested and images were taken. […] Data represent the mean±s.d.
BALB/c-nude mice (6-8 weeks old, male) were purchased from the Sino-British Sippr/BK Lab Animal Co., Ltd (Shanghai, China) and maintained under pathogen-free conditions. The animal use protocol was approved by the Institutional Animal Care and Use Committee of East China Normal University. […] The tumor volume and mouse body weight were measured twice a week. The tumor volume was calculated using the following equation: tumor volume (V)=length×width×width×0.52.
BALB/c-nude mice (6-8 week old, male) were purchased from the Sino-British Sippr/BK Lab Animal Co., Ltd (Shanghai, China) and maintained under pathogen-free conditions. […] The tumor volume and mouse body weight were measured twice a week. The tumor volume was calculated using the following equation: tumor volume (V)=length×width×width×0.52.

[3] = tested on: 22RV1-luc orthotopic xenografts; assay: Orthotopic castration resistant prostate cancer model; format: in vivo, mouse; settings: castrated mice, 2 mgkg^−1 AIL or 10 mgkg^−1 MDV i.p. once per day, 28 days
Procedure: (A,B) The dorsolateral prostate of male BALB/c-nude mice was injected with 1×10^6 22RV1-luc cells in 30 μl matrigel. […] After 28 days, mice were sacrificed and the local tumors were removed and volumes and weight of the tumors were measured (A).
For orthotopic castration resistant prostate cancer xenografts, male BALB/c-nude mice (8-9 weeks of age) were anesthetized using 150 mgkg^−1 2,2,2-tribromethanol plus 350 mgkg^−1 tert-amyl alcohol and then 5×10^5 22RV1-luc cells suspended in 30 μl 50% Matrigel were surgically injected into the dorsolateral prostate lobes. One week after injection, the tumor-bearing mice were castrated and randomly assigned to three groups. […] Prostate tumor growth and local metastasis were monitored weekly using the IVIS Imaging System (Xenogen Corporation, Alameda, Calif.). Images and measurements of bioluminescent signals were acquired and analyzed using LivingImage and Xenogen software^52.

[4] = tested on: LNCaP-MDV3100-R cells; assay: SRB cell growth assay, MDV3100-resistant cells; settings: 72 hours, 20 μM BIC, 20 μM MDV, 0.1 μM AIL
Procedure: Cell growth was determined by SRB assay.
The half maximal inhibitory concentration (IC50) was calculated using GraphPad Prism 5.0 (GraphPad, San Diego, Calif.).

[5] = tested on: AR-regulated genes (PSA, TMPRSS2, FKBP5, SLC45A3, NDRG1 mRNA); assay: Quantitative real-time PCR of AR-regulated genes; settings: 22RV1 cells, 10 nM R1881, 10 μM MDV or 0.2 μM AIL, 12 hours
Procedure: The genes expression was measured byquantitative-PCR.
Total RNA was extracted using TRIzol (Takara, Japan) according to the manufacturer's instructions. 1 μg of total RNA was used for cDNA synthesis using a cDNA reverse transcription kit (Takara, Japan). Real-time PCR was performed in triplicate using gene-specific primers on a Stratagene Mx3005P PCR system (Agilent Technologies) machine. The mRNA expression levels were normalized to β-actin expression or GAPDH.

[6] = tested on: LNCaP cells; assay: SRB cell growth assay, androgen-starved cells with R1881; settings: 0.1 nM R1881, 96 hours, 10 μM BIC, 10 μM MDV, 0.1-0.4 μM AIL
[7] = tested on: c4-2b; assay: as above; settings: androgen-starved c4-2b, 0.1 nM R1881, 96 hours; 10 μM BIC, 10 μM MDV, 0.1 μM AIL
[8] = tested on: 22RV1; assay: as above; settings: androgen-starved 22RV1, 0.1 nM R1881, 96 hours; 10 μM BIC, 10 μM MDV, 0.1 μM AIL
[9] = in vivo; design: species or system rat; settings: for T1/2: rats
Procedure: A simple and sensitive method for the determination of Ailanthonein plasma was developed, using high-performance liquid chromatography-tandem mass spectrometry (HPLC-MS/MS). Brusatol was used as an internal standard. […] The details of this HPLC-MS/MS method and sample preparation are described in our previous study^37.
The statistical analysis was performed by SPSS 22.0 software. The differences between control group and experimental groups were determined by one-way ANOVA. Since treatment and time course was investigated, two-way ANOVA followed by post hoc test was also applied. Data was expressed as mean and standard deviation (s.d.) and P<0.05 was considered significant. Pharmacokinetic parameters were calculated by WinNonlin software version 5.2.1 (Pharsight Corporation, Mountain View, USA) based on noncompartmental analysis.
Sprague-Dawley rats (purchased from Shanghai SLAC laboratory animal Co. Ltd., Shanghai, China) were fasted for 12 h with free access to water prior to the pharmacokinetic study. The rats were randomized into two groups for oral administration (5 mg/kg) and intravenous injection (1 mg/kg). Blood samples were collected from the orbital plexus into heparinized centrifuge tubes at fifteen different time points between 5 min to 36 h for the oral administration group and nine time points between 5 min to 6 h for the intravenous one. The pharmacokinetic parameters were calculated by WinNonlin software version 5.2.1 based on noncompartmental analysis. Oral bioavailability was calculated as F (%)=AUC0-∞(p.o.)/AUC0-∞(i.v.)×Dose (i.v.)/Dose (p.o.).

[10] = tested on: CYP2C11, CYP3A1/2 and CYP1A2; settings: mouse, in vivo
Procedure: FIG. 6A-FIG. 6H. Pharmacokinetic studies of AIL. […] Images show tumors at harvest (30 days after treatment). Scale bar, 1 cm. […] AIL or vehicle control was measured by Western blotting analysis (D) and the livers were photographed and stained with HE (e). Scale bar, the black scale bar is 1 cm (top) and the white scale bar is 50 μm (bottom). […] Scale bar, 1 cm.

[11] = Sprague-Dawley, rat, in vivo, iv, 1 mg/kg
[12] = Sprague-Dawley, rat, in vivo, po, 5 mg/kg

C=CCNC1=C2C[C@@H](C)C[C@H](OC)[C@H](O)[C@@H](C)/C=C(\C)[C@H](OC(N)=O)[C@@H](OC)/C=C\C=C(/C)C(=O)NC(=CC1=O)C2=O [17-AAG]
HSP90 and HSP70 protein levels [1]: induced up-regulation of HSP90 and HSP70 protein

CNC(=O)c1ccc(N2C(=S)N(c3ccc(C#N)c(C(F)(F)F)c3)C(=O)C2(C)C)cc1F [MDV]
xenograft sensitivity (tumor volume) [2]: still responded | reduction of tumor volume [3]: 15% | cell growth (SRB) [4]: totally resistant | PSA mRNA level in the presence of R1881 [5]: decreased | cell growth (SRB) [6]: effectively blocked cell growth | cell growth (SRB) [7]: could not significantly inhibit cell growth | cell growth (SRB) [8]: could not significantly inhibit cell growth

C=C1[C@@H](O)[C@]2(O)OC[C@]34[C@H]2[C@@]2(C)[C@H](O)C(=O)C=C(C)[C@@H]2C[C@H]3OC(=O)C[C@@H]14 [AIL, 11β,20-Epoxy-1β,11,12α-trihydroxypicrasa-3,13(21)-diene-2,16-dione]
Bioavailability (oral) ([9]; Sprague-Dawley, rat, in vivo): 25.7% | bioavailability ([9]; Sprague-Dawley, rat, in vivo): > 20% | AUC0-t [9, 11]: 57874.3 ± 6871.1 ng·min/mL | AUC0-∞ [9, 11]: 61517.4 ± 5986.2 ng·min/mL | AUC0-t [9, 12]: 67324.5 ± 7405.3 ng·min/mL | AUC0-∞ [9, 12]: 79053.9 ± 14616.6 ng·min/mL | absorption, elimination and distribution after oral administration ([9]; rat, in vivo, po): absorbed quickly, eliminated rapidly and distributed widely in tissues | T1/2 ([9]; i.v. 1 mg kg^−1, mean ± s.d.): 1.888 ± 0.66 h | T1/2 ([9]; p.o. 5 mg kg^−1, mean ± s.d.): 12.17 ± 2.598 h | expression of CYP enzymes in liver [10]: did not influence the expression
